In US10272056B2, “Treatment for mitochondrial diseases” (The George Washington University a Congressionally …, priority 2015, dated 2019):

Legend:
[1] = system: MELAS fibroblasts; assay: Affymetrix genome-wide microarray analysis; format: cell-based, human
Excerpt: An embodiment of the novel pharmacological approach described herein uses butyrates to promote nuclear and mitochondrial metabolic reprogramming by boosting mitochondrial biogenesis and maximizing residual ATP output. […] Thus, the data validate a pharmaco-epigenomic approach and establish proof-of-principle. It was hypothesized that butyrates can augment the functional mitochondrial mass in skin fibroblasts from 20 MELAS patients. Fibroblasts from this number of patients, each with different nuclear backgrounds and heteroplasmic loads, will ensure the findings extend beyond a case study into a statistically sound and broadly applicable report. It will be tested whether butyrates: (Aim 1) induce favorable mitochondrial biogenesis, thereby shifting heteroplasmy toward healthy mitochondria; and (Aim 2) maximize ATP output via optimization of OXPHOS activity and a metabolic shift toward fatty acid beta oxidation. It is anticipated to identify the most promising butyrate candidate for alleviating the symptoms of the MELAS disease. The proposed study will set the stage for future clinical studies with the Children's National Medical Center and the North American Mitochondrial Disease Consortium, in concordance with the PAR-13-023 issued by the NINDS Office of Translational Research for R21 exploratory projects.

[2] = system: E17.5 hippocampal neurons; assay: NaBt dose-dependent acetylation of nuclear proteins in neurons; format: cell-based; conditions: E17.5 hippocampal neurons at 1DIV
Excerpt: FIG. 4A-4E are images from microscopy and graphs showing NaBt dose-dependent acetylation and cellular toxicity in PC12-ND6 cells and embryonic E17.5 hippocampal neurons. (A) Confocal micrographs of PC12-ND6 cells (referred to as ND6) grown in the absence or presence of NaBt for three days and labeled with an anti-acetylated Lys antibody (AcLys; green). Scale bar represents 10 μm. […] Results are expressed as relative fluorescence intensity±S.D. (n=250 cells per NaBt concentration; * p=0.0001). (C) Effect of NaBt on PC12-ND6 cell viability. […] Mean±SEM (n=250 cells for each experimental condition; * p=0.0001). (D) Confocal micrographs of NaBt dose-dependent acetylation in E17.5 hippocampal neurons (AcLys; green). Scale bar represents 10 μm.
Sodium butyrate increases protein acetylation in a dose-dependent manner without inducing cellular toxicity. A dose response analysis was performed to determine the optimal concentration of sodium butyrate (NaBt) for inducing maximal acetylation levels with minimal cellular toxicity. PC12-ND6 cells were treated with different concentrations of NaBt (2 mM, 5 mM, and 10 mM) for three days before assessing the degree of acetylated lysine residues by immunocytochemistry and cell viability by live-cell confocal microscopy using the Nuclear-ID™ stain.

[3] = system: Tfam; assay: Quantitative immunoblot analysis of Tfam; format: cell-based; conditions: NaBt treatment, PC12-ND6
Excerpt: (§1) FIG. 11A-11D are images from microscopy and graphs showing NaBt promotes mtDNA replication via the NRF-1/Tfam axis. (A) Confocal analysis of mtDNA foci; scale bar=5 (B) Quantitative analysis of mtDNA copy number by PCR; *p<0.001. (C, D) Quantitative immunoblot analysis of NRF-1 and Tfam; *p<0.001.
(§2) NaBt enhances mtDNA replication via the PGC1α-mediated NRF-1/Tfam axis. It was investigated whether NaBt enhanced mtDNA replication using the PicoGreen® dye to label mtDNA. PC12-ND6 cells were transfected with the mito-dsRed vector prior to NaBt treatment followed by PicoGreen® staining. […] To corroborate enhanced mitochondrial biogenesis, two key target genes of PGC1α were examined, the NRF-1 transcription factor and its direct target gene Tfam, both essential for mitochondrial biogenesis. […] The findings confirm the NaBt-mediated modulation of mitochondrial biogenesis and mtDNA replication in neuronal cells.

[4] = system: histones H2B, H3 and H4 proteins; assay: Acetylation of specific lysine residues of histones (immunocytochemistry); format: cell-based; conditions: NaBt 5 mM, three days, PC12-ND6 cells
Description: PC12-ND 6 cells were treated with NaBt (5 mM) for three days before performing immunocytochemistry to evaluate the acetylation status of lysine residues of key histone proteins, as listed on top of each confocal micrograph. Left panels illustrate representative pictures of PC12-ND6 cells grown in the absence (control) or presence of NaBt for three days and labeled with specific acetylated Lys antibody (green) and DAPI as a nuclear label (blue). Scale bar represents 10 μm. The right panels show the graph for each quantification of acetylated lysine residue for key histone proteins. Results are expressed as relative fluorescence intensity±S.D. (1000 cells per condition; n=3; * p=0.0001).
Sodium butyrate induces epigenetic reprogramming by acetylating key amino acid residues of histone proteins H2B, H3 and H4. Histone acetylation, which is mediated by two groups of enzymes, histone acetyltransferases (HATs) and histone deacetylases (HDAC), promote gene expression responsible to induce differentiation of neural stem cells and neural progenitor cells. Epigenetic regulators, such as the NaBt and its derivatives, inhibit the activity of HDAC enzymes, thereby favoring HAT activity and inducing an open chromatin structure to allow easy access to the DNA via histone acetylation. Thus, which lysine residues of key histone proteins were targeted by NaBt ws investigated. The lysine residue K27 of the histone H3 protein was targeted, as it is known to be acetylated to favor expression of lineage-specific genes associated with neural differentiation of progenitors and stem cells. Immunocytochemistry results confirmed that NaBt induced a 210% increased acetylation of the K27 residue of H3 (FIG. 5). Analysis was extended to additional acetylation marks, such as the lysine residue K9 of the histone H3, the K12 residue of histone H4 […] are important indicators of active enhancer elements. […] Thus, NaBt induces a specific epigenetic reprogramming of neural-like progenitor PC12-ND6 cell by inducing a series of acetylation marks to confer transcriptional competence.

[5] = system: NRF-1; assay: Quantitative immunoblot analysis of NRF-1; format: cell-based; conditions: NaBt treatment, PC12-ND6
Excerpt: as §1, §2

Compound: CCCC(=O)[O-].[Na+] [NaBt, sodium butyrate]
- increased expression of OXPHOS genes ([1]; 30 genes, p<0.05): ≥ 1.5 fold
- nuclear genes significantly regulated ([1]; NaBt): 5%
- off-target effects ([1]; NaBt): limited off-target effects
- expression of nuclear genes involved in mitochondrial morphology and fusion-fission events ([1]; NaBt-treated): increased expression levels
- genes known to promote FAO ([1]; NaBt-treated): ten upregulated genes
- number of OXPHOS genes with increased expression ([1]; subunits of complexes II, III, IV, V, p<0.05): 30
- NaBt concentration resulting in near maximal acetylation levels of nuclear proteins [2]: 2 mM
- Tfam expression [3]: induced Tfam expression on day 2
- acetylation of histone H2B [4]: hyperacetylated
- increased acetylation of H3K9 [4]: 250%
- increased acetylation of H4K12 [4]: 124%
- increased acetylation of the K27 residue of H3 [4]: 210%
- NRF-1 expression [5]: increased on day 1
